Earlier results as cited in patent US20160331734A1, “SUBSTITUTED N-ARYL PYRIDINONES” (AUSPEX PHARMACEUTICALS, INC., priority 2014, published 2016).

Columns and labels:
[1] = humans

- half-life [1]: very short
SMILES: Cc1ccc(=O)n(-c2ccccc2)c1 [Pirfenidone, 5-Methyl-1-phenylpyridin-2(1H)-one]
- DNA synthesis (myometrial cells): inhibits DNA synthesis
- DNA synthesis (leiomyoma cells): inhibits DNA synthesis
